Test system: HepG2
Assay: Inhibition of human recombinant BMP6-stimulated hepcidin mRNA expression in human HepG2 cells after 6 hrs by qRT-PCR analysis
Type: functional, cell-based
Details: HepG2, 6 h

| Compound | IC50 [µM] |
| --- | --- |
| CCOC(=O)Nc1cc(-c2c(C3CC3)n[nH]c2C)cc2[nH]ncc12 | 0.66 |
| CNC(=O)Nc1cc(-c2c(C3CC3)n[nH]c2C)cc2[nH]ncc12 | 0.34 |
| Cc1[nH]nc(C2CC2)c1-c1cc(NC(=O)C2CC2)c2cn[nH]c2c1 | 1 |
| Cc1[nH]nc(C2CC2)c1-c1ccc2c(-c3ccc[nH]3)n[nH]c2c1 | 3.1 |
| COCc1n[nH]c(C)c1-c1cc(NC(=O)OC)c2cn[nH]c2c1 | 3.9 |
| Cc1[nH]nc(C2CC2)c1-c1ccc2cn[nH]c2c1 | 4.1 |
| Cc1[nH]nc(C2CC2)c1-c1ccc2c(-c3ccncc3)n[nH]c2c1 | 2.6 |
| CCc1n[nH]c(C)c1-c1cc(NC(=O)OC)c2cn[nH]c2c1 | 0.18 |
| COC(=O)N(C)c1cc(-c2c(C3CC3)n[nH]c2C)cc2[nH]ncc12 | 3 |
| Cc1[nH]nc(C2CC2)c1-c1cc(N)c2cn[nH]c2c1 | 2.7 |
| COC(=O)Nc1cc(-c2c(-c3ccccn3)n[nH]c2C)cc2[nH]ncc12 | 0.32 |
| CCC(=O)Nc1cc(-c2c(C3CC3)n[nH]c2C)cc2[nH]ncc12 | 0.45 |
| COC(=O)Nc1cc(-c2c(C)n[nH]c2C)cc2[nH]ncc12 | 0.15 |
| CC(=O)Nc1cc(-c2c(C3CC3)n[nH]c2C)cc2[nH]ncc12 | 0.19 |
| Cc1[nH]nc(C2CC2)c1-c1ccc2c(-c3ccc(N4CCNCC4)nc3)n[nH]c2c1 | 0.17 |
| Cc1[nH]nc(C2CC2)c1-c1cc(NS(C)(=O)=O)c2cn[nH]c2c1 | 1.2 |
| Cc1[nH]nc(C2CC2)c1-c1cc(NC(=O)c2ccc(N3CCN(C)CC3)cc2)c2cn[nH]c2c1 | 1.9 |
| COC(=O)Nc1cc(-c2c(C(C)C)n[nH]c2C)cc2[nH]ncc12 | 0.19 |
| COC(=O)Nc1cc(-c2c(-c3ccccc3)n[nH]c2C)cc2[nH]ncc12 | 1.1 |
| Cc1[nH]nc(C2CC2)c1-c1ccc2c(-c3cccnc3)n[nH]c2c1 | 2.3 |
| CC(=O)Nc1n[nH]c2cc(-c3c(C4CC4)n[nH]c3C)ccc12 | 0.41 |
| COC(=O)Nc1cc(-c2c(C(=O)O)n[nH]c2C)cc2[nH]ncc12 | > 10 |
| CNC(=O)c1n[nH]c(C)c1-c1cc(NC(=O)OC)c2cn[nH]c2c1 | 2 |
| CNC(=O)c1cc(-c2c(C3CC3)n[nH]c2C)cc2[nH]ncc12 | 2.2 |
| COC(=O)Nc1cc(-c2c(C(=O)OC)n[nH]c2C)cc2[nH]ncc12 | 0.13 |
